Experimental data as given in US4419349A (priority 1978, dated 1983).

Experiments:
Type in all cases: cell-based
rabbit spleen cells = tested on: rabbit spleen cells
mouse spleen cells = test: IF induction in vitro, mouse (Table 6); conditions: control 1.0 μg/ml
Protocol: (§1) A spleen cell suspension (10^7 cells/ml) was prepared by the method of hereinafter described Experiment 1 using an Eagle MEM medium (commercial product of Nissui Seiyaku K.K., Tokyo) containing a 10% calf serum (which was replaced by a 10% fetal cattle serum in the cases of human tests), each of which fraction (1 ml) was added with a given concentration of the sample of the active substance and incubated at a given temperature. The cultured liquor was centrifuged to separate a supernatant which was used for determining the IF activity induced. In the case of humans, the fresh spleen was collected from a person (adult deceased by external wounds) and used for the preparation of a leucocytes suspension on each occasion, and also blood was collected from the vein at the upper arm of a person (adult), from which the serum was separated to use for the preparation of a serum suspension on each occasion.
(§2) The IF activities were determined by using the cells shown in Table 5 in a similar manner to that hereinafter described in Experiment 1.

human spleen cells = test: IF induction in vitro, human spleen (Table 6); conditions: control 1.0 μg/ml
Protocol: as §1, §2

Poly I:C
IF activity in vitro (Control) (rabbit spleen cells): 220
IF activity in vitro (Control) (mouse spleen cells): 120
IF activity in vitro (Control) (human spleen cells): < 5
